{"source": "patent US20100063065A1", "about": "(Inpharmatica Limited, priority 2005, published 2010)"}
{"target": "T1, PPARδ (Homo sapiens, UniProt Q03181)", "T1 construct": "fused to amino acids 147-441 of PPARδ downstream of CMV promoter; expressed in transfected cells; host or cells: HEK293 cells, transiently transfected with pFACMV-PPARδ using Fugene", "T1 sequence (Q03181 147-441)": "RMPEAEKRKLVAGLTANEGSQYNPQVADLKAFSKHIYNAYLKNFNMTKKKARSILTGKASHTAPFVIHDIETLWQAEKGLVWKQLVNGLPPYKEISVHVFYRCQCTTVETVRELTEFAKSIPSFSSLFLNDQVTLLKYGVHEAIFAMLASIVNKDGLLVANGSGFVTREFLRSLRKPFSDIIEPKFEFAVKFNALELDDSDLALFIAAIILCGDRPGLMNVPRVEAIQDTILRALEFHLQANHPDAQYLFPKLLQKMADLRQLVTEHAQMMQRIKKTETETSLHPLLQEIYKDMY", "assay": "Transactivation assay (PPARδ GAL4 assay) in transiently transfected HEK293 cells", "type": "cell-based", "details": "luciferase reporter, Table 1", "procedure": "(§1) Compounds were screened for their functional potency in transiently transfected HEK293 cells for their ability to activate PPAR subtypes. Cells were cultured in DMEM (Invitrogen) supplemented with 10% foetal calf serum, glutamine, penicillin and streptomycin and plated at 10 000 cells/well of a 96-well solid white plate and incubated at 37° C./5% CO2 for 24 hours. Media was removed and the cells washed with PBS. Cells were then transiently transfected using Fugene (Roche) with 50 ng pFACMV-PPARδ (plasmid encoding amino acids 1-147 of the GAL4 DNA binding domain, fused to amino acids 147-441 of PPARδ downstream of CMV promoter) and 250 ng pFR-Luc (reporter plasmid containing 5×GAL4 response elements upstream of a luciferase gene), using a ratio of 3:1 Fugene:DNA. 100 μl of this transfection mixture in DMEM (without foetal calf serum) was added to each well, and the incubation continued for a further 24 hours. The cells are then again washed with PBS prior to the addition of 100 μl reduced serum medium (OptiMEM; Invitrogen). Compounds were added (10 μl in 2% DMSO in OptiMEM) to achieve final concentrations between 0-30 μM. The cells were then returned to the incubator for a further 24 hours. 100 μl of luciferase reagent (Bright Glo, Promega) was added directly to each well, and the luminescence determined using a suitable luminometer.\n(§2) To measure the selectivity of compounds, their ability to transactivate GAL4 fusions of PPARα LBD and PPARγ LBD was determined. The activity of compounds was expressed as a percentage relative to control compounds: PPARγ rosiglitazone (BRL 49653), PPARδ GW501516 (11) or PPARα KCL1999000269 (12). EC50 values were calculated by fitting of the data to a sigmoidal dose response curve.", "units": {"EC50": "µM"}}
{"smiles": "CCc1cc(C(=O)c2ccc(OC(F)(F)F)cc2)c(NC(=O)CN[C@@H](C(=O)O)C(C)C)s1", "note": "(single isomer, unassigned) [Example 75, 2-({[5-Ethyl-3-(4-trifluoromethoxy-benzoyl)-thiophen-2-ylcarbamoyl]-methyl}-amino)-3-methyl-butyric acid]", "EC50": "< 0.1"}
{"smiles": "CCc1cc(C(=O)c2ccc(OC(F)(F)F)cc2)c(NC(=O)CSCC(=O)O)s1", "note": "[Example 1, {[5-Ethyl-3-(4-trifluoromethoxy-benzoyl)-thiophen-2-ylcarbamoyl]-methylsulfanyl}-acetic acid]", "EC50": "< 0.1"}
{"smiles": "CCc1cc(C(=O)c2ccc(OC(F)(F)F)cc2)c(NC(=O)CSC(C)(C)C(=O)O)s1", "note": "[Example 2, 2-{[5-Ethyl-3-(4-trifluoromethoxy-benzoyl)-thiophen-2-ylcarbamoyl]-methylsulfanyl}-2-methyl-propionic acid]", "EC50": "< 0.1"}
{"smiles": "CCc1cc(C(=O)c2ccc(OC(F)(F)F)cc2)c(NC(=O)CC(C)(C)CC(=O)O)s1", "note": "[Example 3, 4-[5-Ethyl-3-(4-trifluoromethoxy-benzoyl)-thiophen-2-ylcarbamoyl]-3,3-dimethyl-butylic acid]", "EC50": "0.1 to 1"}
{"smiles": "CCc1cc(C(=O)c2ccc(OC(F)(F)F)cc2)c(NC(=O)CC2(CC(=O)O)CCCC2)s1", "note": "[Example 4, (1-{[5-Ethyl-3-(4-trifluoromethoxy-benzoyl)-thiophen-2-ylcarbamoyl]-methyl}-cyclopentyl)-acetic acid]", "EC50": "0.1 to 1"}
{"smiles": "CCc1cc(C(=O)c2ccc(OC)cc2)c(NC(=O)CSC(C)(C)C(=O)O)s1", "note": "[Example 5, 2-{[5-Ethyl-3-(4-methoxy-benzoyl)-thiophen-2-ylcarbamoyl]-methylsulfanyl}-2-methyl-propionic acid]", "EC50": "0.1 to 1"}
{"smiles": "CCc1cc(C(=O)c2ccc(OC)cc2)c(NC(=O)CC2(CC(=O)O)CCCC2)s1", "note": "[Example 6, (1-{[5-Ethyl-3-(4-methoxy-benzoyl)-thiophen-2-ylcarbamoyl]-methyl}-cyclopentyl)-acetic acid]", "EC50": "1 to 30"}
{"smiles": "CCc1cc(C(=O)c2ccc(OC)cc2)c(NC(=O)CCCC(=O)O)s1", "note": "[Example 7, 4-[5-Ethyl-3-(4-methoxy-benzoyl)-thiophen-2-ylcarbamoyl]-butyric acid]", "EC50": "1 to 30"}
{"smiles": "CCc1cc(C(=O)c2ccc(C)cc2)c(NC(=O)CSCC(=O)O)s1", "note": "[Example 8, {[5-Ethyl-3-(4-methyl-benzoyl)-thiophen-2-ylcarbamoyl]-methylsulfanyl}-acetic acid]", "EC50": "0.1 to 1"}
{"smiles": "CCc1ccc(C(=O)c2cc(CC)sc2NC(=O)CSCC(=O)O)cc1", "note": "[Example 9, {[5-Ethyl-3-(4-ethyl-benzoyl)-thiophen-2-ylcarbamoyl]-methylsulfanyl}-acetic acid]", "EC50": "0.1 to 1"}
{"smiles": "CCc1ccc(C(=O)c2cc(CC)sc2NC(=O)CSC(C)(C)C(=O)O)cc1", "note": "[Example 10, 2-{[5-Ethyl-3-(4-ethyl-benzoyl)-thiophen-2-ylcarbamoyl]-methylsulfanyl}-2-methyl-propionic acid]", "EC50": "0.1 to 1"}
{"smiles": "CCc1ccc(C(=O)c2cc(CC)sc2NC(=O)CC2(CC(=O)O)CCCC2)cc1", "note": "[Example 11, (1-{[5-Ethyl-3-(4-ethyl-benzoyl)-thiophen-2-ylcarbamoyl]-methyl}-cyclopentyl)-acetic acid]", "EC50": "1 to 30"}
{"smiles": "CCc1cc(C(=O)c2ccc(Oc3ccccc3)cc2)c(NC(=O)CSCC(=O)O)s1", "note": "[Example 12, {[5-Ethyl-3-(4-phenoxy-benzoyl)-thiophen-2-ylcarbamoyl]-methylsulfanyl}-acetic acid]", "EC50": "0.1 to 1"}
{"smiles": "CCc1cc(C(=O)c2ccc(Oc3ccccc3)cc2)c(NC(=O)CC(C)(C)CC(=O)O)s1", "note": "[Example 13, 4-[5-Ethyl-3-(4-phenoxy-benzoyl)-thiophen-2-ylcarbamoyl]-3,3-dimethyl-butyric acid]", "EC50": "1 to 30"}
{"smiles": "CCc1cc(C(=O)c2ccccc2)c(NC(=O)CSCC(=O)O)s1", "note": "[Example 14, [(3-Benzoyl-5-ethyl-thiophen-2-ylcarbamoyl)-methylsulfanyl]-acetic acid]", "EC50": "1 to 30"}
{"smiles": "CCc1cc(C(=O)c2ccccc2)c(NC(=O)CSC(C)(C)C(=O)O)s1", "note": "[Example 15, 2-[(3-Benzoyl-5-ethyl-thiophen-2-ylcarbamoyl)-methylsulfanyl]-2-methyl-propionic acid]", "EC50": "1 to 30"}
{"smiles": "CCc1cc(C(=O)c2ccccc2)c(NC(=O)CC(C)(C)CC(=O)O)s1", "note": "[Example 16, 4-(3-Benzoyl-5-ethyl-thiophen-2-ylcarbamoyl)-3,3-dimethyl-butyric acid]", "EC50": "1 to 30"}
{"smiles": "CCc1cc(C(=O)c2ccccc2)c(NC(=O)CC2(CC(=O)O)CCCC2)s1", "note": "[Example 17, {1-[(3-Benzoyl-5-ethyl-thiophen-2-ylcarbamoyl)-methyl]-cyclopentyl}-acetic acid]", "EC50": "1 to 30"}
{"smiles": "CCc1cc(C(=O)c2ccc(F)cc2)c(NC(=O)CSCC(=O)O)s1", "note": "[Example 18, {[5-Ethyl-3-(4-fluoro-benzoyl)-thiophen-2-ylcarbamoyl]-methylsulfanyl}-acetic acid]", "EC50": "1 to 30"}
{"smiles": "CCc1cc(C(=O)c2ccc(F)cc2)c(NC(=O)CSC(C)(C)C(=O)O)s1", "note": "[Example 19, 2-{[5-Ethyl-3-(4-fluoro-benzoyl)-thiophen-2-ylcarbamoyl]-methylsulfanyl}-2-methyl-propionic acid]", "EC50": "0.1 to 1"}
{"smiles": "CCc1cc(C(=O)c2ccc(F)cc2)c(NC(=O)CC(C)(C)CC(=O)O)s1", "note": "[Example 20, 4-[5-Ethyl-3-(4-fluoro-benzoyl)-thiophen-2-ylcarbamoyl]-3,3-dimethyl-butyric acid]", "EC50": "1 to 30"}
{"smiles": "CCc1cc(C(=O)c2ccc(F)cc2)c(NC(=O)CC2(CC(=O)O)CCCC2)s1", "note": "[Example 21, (1-{[5-Ethyl-3-(4-fluoro-benzoyl)-thiophen-2-ylcarbamoyl]-methyl}-cyclopentyl)-acetic acid]", "EC50": "1 to 30"}
{"smiles": "CCc1cc(C(=O)c2ccc(Br)cc2)c(NC(=O)CSCC(=O)O)s1", "note": "[Example 22, {[3-(4-Bromo-benzoyl)-5-ethyl-thiophen-2-ylcarbamoyl]-methylsulfanyl}-acetic acid]", "EC50": "< 0.1"}
{"smiles": "CCc1cc(C(=O)c2ccc(Cl)cc2)c(NC(=O)CSCC(=O)O)s1", "note": "[Example 23, {[3-(4-Chloro-benzoyl)-5-ethyl-thiophen-2-ylcarbamoyl]-methylsulfanyl}-acetic acid]", "EC50": "0.1 to 1"}
{"smiles": "CCc1cc(C(=O)c2ccc(Cl)cc2)c(NC(=O)CSC(C)(C)C(=O)O)s1", "note": "[Example 24, 2-{[3-(4-Chloro-benzoyl)-5-ethyl-thiophen-2-ylcarbamoyl]-methylsulfanyl}-2-methyl-propionic acid]", "EC50": "0.1 to 1"}
{"smiles": "CCc1cc(C(=O)c2ccc(Cl)cc2)c(NC(=O)CC(C)(C)CC(=O)O)s1", "note": "[Example 25, 4-[3-(4-Chloro-benzoyl)-5-ethyl-thiophen-2-ylcarbamoyl]-3,3-dimethyl-butyric acid]", "EC50": "1 to 30"}
{"smiles": "CCc1cc(C(=O)c2ccc(Cl)cc2)c(NC(=O)CC2(CC(=O)O)CCCC2)s1", "note": "[Example 26, (1-{[3-(4-Chloro-benzoyl)-5-ethyl-thiophen-2-ylcarbamoyl]-methyl}-cyclopentyl)-acetic acid]", "EC50": "1 to 30"}
{"smiles": "CCc1cc(C(=O)c2cccc(Cl)c2)c(NC(=O)CSCC(=O)O)s1", "note": "[Example 27, {[3-(3-Chloro-benzoyl)-5-ethyl-thiophen-2-ylcarbamoyl]-methylsulfanyl}-acetic acid]", "EC50": "0.1 to 1"}
{"smiles": "CCc1cc(C(=O)c2ccc(Cl)c(Cl)c2)c(NC(=O)CSCC(=O)O)s1", "note": "[Example 28, {[3-(3,4-Dichloro-benzoyl)-5-ethyl-thiophen-2-ylcarbamoyl]-methylsulfanyl}-acetic acid]", "EC50": "< 0.1"}
{"target": "T1, PPARδ", "assay": "Transactivation assay (PPARδ GAL4 assay) in transiently transfected HEK293 cells", "type": "cell-based", "details": "luciferase reporter, Table 2", "procedure": "as §1, §2", "units": {"EC50": "µM"}}
{"smiles": "CCc1cc(C(=O)c2ccc(OC(F)(F)F)cc2)c(NC(=O)CN2CC(C)CC2C(=O)O)s1", "note": "(mixture of isomers) [Example 180, 1-{[5-Ethyl-3-(4-trifluoromethoxy-benzoyl)-thiophen-2-ylcarbamoyl]-methyl}-4-methyl-pyrrolidine-2-carboxylic acid]", "EC50": "0.1 to 1"}
{"smiles": "CCc1cc(C(=O)c2ccc(OC(F)(F)F)cc2)c(NC(=O)CN2[C@H](C)CC[C@@H]2C(=O)O)s1", "note": "(relative stereo) [Example 178, (2R*,5R*)-1-{[5-Ethyl-3-(4-trifluoromethoxy-benzoyl)-thiophen-2-ylcarbamoyl]-methyl}-5-methyl-pyrrolidine-2-carboxylic acid]", "EC50": "1 to 30"}
{"smiles": "CCc1cc(C(=O)c2ccc(OC(F)(F)F)cc2)c(NC(=O)CN2[C@@H](C(=O)O)CC[C@@H]2C)s1", "note": "(relative stereo) [Example 179, (2R*,5S*)-1-{[5-Ethyl-3-(4-trifluoromethoxy-benzoyl)-thiophen-2-ylcarbamoyl]-methyl}-5-methyl-pyrrolidine-2-carboxylic acid]", "EC50": "< 0.1"}
